Reference: paper PMC8414802, “Hair Cell Generation in Cochlear Culture Models Mediated by Novel γ-Secretase Inhibitors” (Frontiers in Cell and Developmental Biology, 2021)
Values joined by “and” are separate entries in the source; they are usually repeats but may differ in a detail not shown here. Equal entries are not always repeated.

Experiment: Inner ear pharmacokinetics after transtympanic administration (perilymph, plasma; LC-MS/MS)
Format: in vivo, guinea pig
Experimental: Female albino Hartley guinea pigs, 250 g, from Charles River (France), housed in macrolon cages (2/cage; Innocage Rat Static-Innovive, Paris) with filter air, were maintained at 22 ± 2°C on a 12-h light cycle with standard A04C (UAR) diet and water “ad libitum.” Lgr5-GFP mice containing an EGFP-IRES-CreERT2 knock-in allele at the Lgr5 locus were obtained from the Jackson Labs (Stock 008875, C57BL/6J/RccHsd background). Atoh1-nGFP transgenic mice (C57Bl/6J background) were from Jane Johnson ([Lumpkin et al., 2003]). Wistar rats were obtained from Charles River.
γ-secretase inhibitors pharmacokinetic studies tested CPD3, CPD8 (Eli Lilly) or LY411575 (Stemcell Technologies) each formulated at 3.4 mg/ml in the following vehicles, 10% Poloxamer 338 (Sigma), 20% Poloxamer 338, 70% PEG400 (Sigma) or 1% hyaluronic acid (HA-700; Lifecore, Chaska, MN, United States) all prepared with PBS (pH 6.2). A single 70 μl injection of the formulated compound (total dose, 870 μg/kg) was delivered to the middle ear space of isoflurane-anesthetized guinea pigs by transtympanic administration. Perilymph from treated animals (perilymph volumes, >2 μl) was collected at time points up to 48 h post-administration (CILcare, Montpellier, France). Briefly, concentrations of each compound in perilymph and plasma, as well as controls prepared in artificial perilymph, were measured by LC-MS/MS on an AB Sciex, API 4000 mass spectrometer using an Onyx C18 5 μm 50^∗2.0 mm separation column (Oroxcell, Romainville, France).
To verify this, in vivo compound concentrations were measured in perilymph of guinea pigs after intratympanic delivery of GSIs into the middle ear. Initially, four vehicle formulations, with different physical properties, were tested, poloxamer 338 (POX; at 10% or 20%), hyaluronic acid (HA), or polyethylene glycol 400 (PEG). For this comparison only one GSI was prepared in each formulation (CPD3, 3.4 mg/ml) and a single dose was injected into the middle ear. Perilymph and plasma were sampled for 48 h (Figure 1D). […] Next, using only 10% POX as vehicle, inner ear adsorption was compared between CPD3, CPD8, and LY411575 by transtympanic injections (Figure 1D, inset). […] Each compound achieved levels several folds above their respective IC50s. The mean maximal perilymph concentration of CPD3 at 0.5 h post-dosing was 85,489 ng/ml (183 μM), then declined at 1 h to 12,928 ng/ml (27.7 μM), and at 6 h to 12,652 ng/ml (27.1 μM). GSIs in plasma samples were not detected (data not shown).

[1] = female, Hartley, guinea pig, perilymph, other: transtympanic (middle ear injection), 870 μg/kg, 10% POX vehicle, transtympanic

SMILES: COc1ccc2c(c1)N1CCC(C)(C)C1=CC(=O)[C@H]2NC(=O)[C@H](C)NC(=O)CCC(F)(F)F [CPD3]
- Time at which mean maximal perilymph concentration was reached (10% POX and 20% POX formulations, post-dosing): 0.5 h
- Mean maximal perilymph concentration at 0.5 h post-dosing (10% POX vehicle, transtympanic): 85,489 ng/ml and 183 μM
- Perilymph concentrations quantifiable (10% POX, sampled at 0.5, 1 and 6 h post-dosing): quantifiable at all time points
- concentration at 1 h [1]: 12900 ng/mL and 27.7 µM
- concentration at 6 h [1]: 12700 ng/mL and 27.1 µM
- concentration at 48 h (female, Hartley, guinea pig, perilymph, other: transtympanic (middle ear injection), 870 μg/kg, single transtympanic dose 3.4 mg/ml, 70 μl, span over the vehicle formulations (10% POX, 20% POX, HA, PEG400)): 485 ng/mL to 1000 ng/mL and 1 µM to 2.1 µM
